Values of other authors, collected in patent EP1854876A2, “Genetically engineered glutaminase and its use in antiviral and anticancer therapy” (ME MEDICAL ENZYMES AG, priority 1992, dated 1994).

Tests used:
[1] = system: E. coli asparaginase, ineffective form; conditions: substrate not given
[2] = biological target: Pseudomonas 7A glutaminase-asparaginase (Pseudomonas sp., UniProt P10182); conditions: described as low
[3] = system: known mammalian glutaminase enzymes; conditions: described as high; substrate not given
[4] = biological target: E. coli glutaminase A (Escherichia coli, UniProt P77454); conditions: described as high; substrate not given
E. coli glutaminase A, sequence (P77454 whole entry): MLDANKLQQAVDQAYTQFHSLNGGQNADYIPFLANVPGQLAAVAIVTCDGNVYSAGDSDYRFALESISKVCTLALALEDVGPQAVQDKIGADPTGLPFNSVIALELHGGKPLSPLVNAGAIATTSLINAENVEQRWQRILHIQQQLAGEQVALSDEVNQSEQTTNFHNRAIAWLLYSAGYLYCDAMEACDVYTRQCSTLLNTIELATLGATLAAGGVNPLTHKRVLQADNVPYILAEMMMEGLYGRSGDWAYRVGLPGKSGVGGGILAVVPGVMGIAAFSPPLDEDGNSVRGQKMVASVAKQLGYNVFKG

[5] = biological target: E. coli glutaminase B (Escherichia coli, UniProt P0A6W0); conditions: described as high; substrate not given
E. coli glutaminase B, sequence (P0A6W0 whole entry): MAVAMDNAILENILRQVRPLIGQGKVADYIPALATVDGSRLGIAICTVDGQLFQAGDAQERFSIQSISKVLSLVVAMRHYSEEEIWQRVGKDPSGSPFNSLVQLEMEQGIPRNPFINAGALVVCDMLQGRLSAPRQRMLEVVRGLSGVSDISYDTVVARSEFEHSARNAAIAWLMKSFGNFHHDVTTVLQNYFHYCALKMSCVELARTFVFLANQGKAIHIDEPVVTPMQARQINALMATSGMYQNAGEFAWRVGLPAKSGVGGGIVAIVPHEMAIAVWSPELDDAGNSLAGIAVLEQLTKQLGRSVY

Pseudomonas 7A glutaminase-asparaginase, sequence (P10182 whole entry): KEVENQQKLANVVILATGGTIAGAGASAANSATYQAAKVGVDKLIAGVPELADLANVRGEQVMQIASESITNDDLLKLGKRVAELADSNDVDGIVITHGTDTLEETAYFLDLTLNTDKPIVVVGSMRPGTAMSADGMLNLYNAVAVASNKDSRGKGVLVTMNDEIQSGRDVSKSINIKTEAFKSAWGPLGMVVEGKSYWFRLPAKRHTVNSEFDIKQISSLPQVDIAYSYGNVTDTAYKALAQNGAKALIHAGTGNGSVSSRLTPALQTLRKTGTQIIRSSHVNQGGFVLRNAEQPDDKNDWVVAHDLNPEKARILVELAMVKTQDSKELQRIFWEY

In the case of NC(=O)C[C@H](N)C(=O)O [asparagine], the Km [1] is given as over 1 mM.
For NC(=O)CC[C@H](N)C(=O)O [glutamine], the KM for glutamine [2] is listed as “micromolar range”, the KM [3] is listed as “millimolar range” and the KM [4] is listed as “millimolar range”. The KM [5] was “millimolar range”.
